Data reported in PubChem BioAssay AID720589 (Broad Institute, 2013).
The source made the active and inactive calls.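 How the source made its calls: active means fitted curve drops below -35% activity at a concentration within twice the top valid tested dose; inconclusive means no clear call, values can overlap the other calls; inactive means signal rising instead of falling, among other cases.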

test: ATP-based viability loss in HepG2 cells – cell-based, CellTiter-Glo luminescence, cherry-pick, set 3, cytotoxicity control, dose response (AID 720589); conditions: HepG2 viability, ATP luminescence (CellTiter-Glo), 72 h; at 0.011 µM; hits give low values; 0% = untreated, negative = ATP loss

Compound	max activity
Cc1cccc(N2CCN(C3C(=O)Nc4ccccc4-n4nnnc43)CC2)c1C (stereo not drawn)	12.3% (inactive)
CC(C)c1ccc(OCc2cccc(C(=O)N/N=C/c3cccnc3)c2)cc1	8.88% (inactive)
COc1ccccc1N(/N=C1\Sc2ccccc2C1=O)C(C)=O	-37.6% (inactive)
C/C(=N\N(c1ccccc1)c1ccccc1)c1ccco1	17.6% (inactive)
CCOc1ccc(-c2cc(CCCC(=O)N3CCN(c4ccc(OC)cc4)CC3)no2)cc1	-25.4% (inactive)
CC(=NNc1ccc2ccccc2n1)c1ccccc1O	-35.4% (inactive)
C(=C\c1ccc(C2[C@H]3CNC[C@@H]2N3Cc2ccccn2)cc1)/c1ccccc1 (stereo partly drawn)	-23.3% (inactive)
CCOC(=O)c1c(-c2ccc(C)cc2)csc1NC(=O)CCN1CCOCC1	41.8% (inactive)
COc1ccccc1/C=C1\SC(=S)N(CCC(=O)Nc2cc(C)on2)C1=O	-26.3% (inactive)

same assay, conditions: HepG2 viability, ATP luminescence (CellTiter-Glo), 72 h; at 0.035 µM; hits give low values; 0% = untreated, negative = ATP loss

Compound	max activity
COc1ccc(S(=O)(=O)N2CC[C@@H]3[C@H](CO)Nc4ccc(-c5ccc(C#N)cc5)cc4[C@@H]32)cc1	-30.4% (inactive)
CCOC(=O)Cc1ccc(NC(=O)c2ccccc2Br)cc1	-16.1% (inactive)
Cc1ccc(C(=O)CN2C(=O)c3ccccc3S2(=O)=O)cc1	23.9% (inactive)
CC(=O)c1ccc(N=Nc2ccc(C)cc2)cc1	-7.42% (inactive)
CN(C)C(=S)N=Nc1[nH]c2ccccc2c1O	24.6% (inactive)

same assay, conditions: HepG2 viability, ATP luminescence (CellTiter-Glo), 72 h; at 0.1 µM; hits give low values; 0% = untreated, negative = ATP loss

Compound	max activity
Cc1ccsc1C(=O)OCC(=O)c1cc(C)n(C)c1C	9.16% (inactive)
O=C(O)c1ccc(N/N=C/c2cc(Br)cs2)cc1	-24.3% (inactive)
COc1ccc(C/C(N)=N/OC(C)=O)cc1OC	-33.4% (inactive)
O=C1Nc2ccccc2C1=Nc1ccc(Br)cc1	-11.9% (inactive)
CN(C)C(=O)c1cccc(-c2ccc(C3[C@@H]4CN(Cc5nccs5)C[C@H]3N4)cc2)c1 (stereo partly drawn)	-30.3% (inactive)
COC(=O)C[C@@H]1CC[C@@H]2[C@H](COc3ccc(NC(=O)Nc4cccc(C#N)c4)cc3C(=O)N2C)O1	28.5% (inactive)
O=C(NCCc1ccccc1)c1ccccc1NC(=O)C1CCCO1 (stereo not drawn)	-10.9% (inactive)
C[C@H]1CN([C@@H](C)CO)C(=O)Cc2cc(NC(=O)CCCCCC(=O)Nc3ccccc3N)ccc2O[C@H]1CN(C)Cc1ccc(Oc2ccccc2)cc1	-23.9% (inactive)
CC(=O)c1ccc(N=C2C(=O)Nc3ccccc32)cc1	-37.4% (inactive)
CCc1ccc(N2C=C(C(=O)OC)C(c3ccc(OC)cc3)C(C#N)=C2N)cc1 (stereo not drawn)	-15.5% (inactive)
CC(=O)Nc1cc(C(=O)NCc2ccco2)ccc1Sc1ccc(F)cc1	-21.9% (inactive)

same assay, conditions: HepG2 viability, ATP luminescence (CellTiter-Glo), 72 h; at 0.3 µM; hits give low values

Compound	max activity
O=C1NC(=O)N(CCc2ccc(F)cc2)C(=O)/C1=C/C=C/c1ccccc1	-15.6% (inactive)

same assay, conditions: HepG2 viability, ATP luminescence (CellTiter-Glo), 72 h; at 0.3 µM; hits give low values; 0% = untreated, negative = ATP loss

Compound	max activity
COC(=O)C[C@@H]1CC[C@@H]2[C@H](COc3ccc(NC(=O)c4cc(C)on4)cc3C(=O)N2C)O1	-20% (inactive)
CCc1c(C(=O)NN2C(=O)C3CCCCC3C2=O)csc1C (stereo not drawn)	-31.9% (inactive)
O=C(CNC(=O)Cc1ccccc1)N=Nc1c(O)n(Cc2ccc3c(c2)OCO3)c2ccccc12	-28.9% (inactive)
C[C@@H]1CN([C@H](C)CO)C(=O)c2cc(NS(=O)(=O)c3ccc(Cl)cc3)ccc2O[C@@H]1CN(C)Cc1ccc(Cl)c(Cl)c1	-36.6% (inactive)
COc1ccc(/C=C2\Oc3ccccc3C2=O)cc1	21% (inactive)
COc1ccc(S(=O)(=O)N2CCCc3nc(-c4ccc(F)cc4)ccc32)cc1	-23.5% (inactive)
CCCc1cc(=O)oc2c3c(c4c(c12)OC(C)(C)C=C4)OC(C)C(C)C3O (stereo not drawn)	-25.9% (inactive)
Cc1ccc(/C=C2\SC(=S)N(CCC(=O)NNC(=O)c3ccccc3O)C2=O)cc1	-42.1% (inactive)
CC(C)(C)c1ccc(Oc2ccc(NC(=O)c3ccccc3C(=O)O)cn2)cc1	-40.7% (inactive)
OCCN1CCN(C(=S)c2ccc(-c3ccccc3)cc2)CC1	-28.5% (inactive)
C=CCn1c(O)c(N=Nc2ccccc2)c2ccccc21	-21.6% (inactive)

same assay, conditions: HepG2 viability, ATP luminescence (CellTiter-Glo), 72 h; at 0.8 µM; hits give low values; 0% = untreated, negative = ATP loss

Compound	max activity
Cc1ccc(S(=O)(=O)N(C)C[C@@H]2Oc3ccc(NC(=O)CCCCCC(=O)Nc4ccccc4N)cc3CC(=O)N([C@@H](C)CO)C[C@@H]2C)cc1	-38.7% (inactive)

same assay, conditions: HepG2 viability, ATP luminescence (CellTiter-Glo), 72 h; at 0.9 µM; hits give low values; 0% = untreated, negative = ATP loss

Compound	max activity
N#C[C@H]1[C@H](c2ccc(-c3ccccc3F)cc2)[C@@H](CO)N1C(=O)c1ccccn1	-27.4% (inactive)
CC(C)(C)c1ccc(Oc2ccc(N)cn2)cc1	14% (inactive)
COC(=O)c1cccc(NC(=O)NC(=O)c2ccccc2Cl)c1	-19.2% (inactive)
Cc1ccc(NC(=O)COC(=O)c2ccc3c(c2)OCO3)cc1S(=O)(=O)N1CCCCC1	-30.2% (inactive)
COc1ccc(OC)c(-c2nnc3n2N=C(c2ccc(OC)c(OC4CCCC4)c2)CS3)c1	-30% (inactive)

same assay, conditions: HepG2 viability, ATP luminescence (CellTiter-Glo), 72 h; at 2.85 µM; hits give low values; 0% = untreated, negative = ATP loss

Compound	max activity
O=C(CN1C(=O)C(=O)c2ccccc21)c1ccc(Cl)cc1	-20.2% (inactive)
C(=Cc1c[nH]c2ccccc12)c1ccc2ccccc2n1	-21.4% (inactive)
O=C1c2ccc3c4c(ccc(c24)C(=O)N1c1cccc(O)c1)C(=O)N(c1cccc(O)c1)C3=O	-25.5% (inactive)
O=C(O)c1cccc(N/N=C/c2ccc(OC(F)(F)F)cc2)c1	-28.9% (inactive)
CN=c1scc(-c2ccccc2F)n1/N=C/c1ccc(O)c(O)c1O	-42.6% (inactive)
CCCc1nc2ccc(NC(=O)c3cccs3)cc2c(=O)n1Cc1ccccc1Cl	-32.5% (inactive)
C(=N\Nc1ccc2ccccc2n1)/c1ccc2c(c1)OCO2	-36.5% (inactive)
COc1ccc(NC(=O)c2cc3ccccc3oc2=O)cc1	-36.9% (inactive)
N#C[C@H]1[C@H](c2ccc(C#Cc3ccccc3F)cc2)[C@@H](CO)N1C(=O)C1CCOCC1	-21.8% (inactive)

same assay, conditions: HepG2 viability, ATP luminescence (CellTiter-Glo), 72 h; at 8 µM; hits give low values; 0% = untreated, negative = ATP loss

Compound	max activity
CC(C)c1ccccc1NC(=O)COC(=O)CCN1C(=O)/C(=C\C=C\c2ccccc2)SC1=S	-10% (inactive)
COC(=O)C[C@H]1CC[C@@H](NC(=O)Nc2ccc(C(F)(F)F)cc2)[C@H](CO)O1	-14.3% (inactive)
COC(=O)C[C@@H]1CC[C@@H]2[C@@H](COc3ccc(NC(=O)Nc4cccc(Cl)c4)cc3C(=O)N2C)O1	-33.7% (inactive)
Cc1ccc(Cl)cc1NC(=O)Cn1cc(C(F)(F)F)cc(Cl)c1=O	-28.6% (inactive)
CO[C@H]1CN(C)C(=O)c2cc(NC(=O)NC(C)C)ccc2OC[C@H](C)N(Cc2ccc(-c3ccccn3)cc2)C[C@@H]1C	-24.8% (inactive)
COC(=O)C[C@@H]1CC[C@@H]2[C@H](COc3ccc(NC(=O)c4ccccc4)cc3C(=O)N2C)O1	-19.1% (inactive)
COC(=O)c1cccc(NC(=O)NC(=O)c2ccc(Cl)cc2)c1	-15.3% (inactive)
Cc1ccc2c(=O)n3c(nc2c1)C(Cc1ccc(O)cc1)NC(=O)c1cc2ccccc2cc1-3 (stereo not drawn)	-16.9% (inactive)
COc1cc(/C=N/NS(=O)(=O)c2ccc(C)cc2)ccc1OCc1cccc(C(=O)O)c1	-15.9% (inactive)

same assay, conditions: HepG2 viability, ATP luminescence (CellTiter-Glo), 72 h; at 21 µM; hits give low values; 0% = untreated, negative = ATP loss

Compound	max activity
COc1ccc(CN(C)C[C@H]2Oc3ccc(NC(=O)CCCCCC(=O)Nc4ccccc4N)cc3CC(=O)N([C@H](C)CO)C[C@H]2C)cc1	-31.8% (inactive)

same assay, conditions: HepG2 viability, ATP luminescence (CellTiter-Glo), 72 h; at 26 µM; hits give low values; 0% = untreated, negative = ATP loss

Compound	max activity
CC(C)(C)c1ccc(Cn2c(=O)cnc3ccccc32)cc1	-40.9% (inactive)
COc1cc2oc3cc(C#Cc4ccc(N)cc4)ccc3c(=O)c2cc1OC	-39.4% (inactive)
O=C(/C=C/c1ccc(Cl)cc1Cl)N(Cc1ccc(Cl)cc1)C1CCS(=O)(=O)C1 (stereo not drawn)	14% (inactive)
Cc1nn(-c2ccc(F)cc2)c2nc(N)c(C#N)c(-c3ccc(O)c(O)c3)c12	-39.7% (inactive)
COc1cc(OC)cc(-c2cc3nc(C)c(CCC(=O)O)c(C)n3n2)c1	-9.81% (inactive)
Cc1ccc(/C=C/C(=O)N2CCN(S(=O)(=O)c3c(C)c(C)cc(C)c3C)CC2)o1	-14.8% (inactive)
Cc1ccc(/C=N/Nc2ccc3ccccc3n2)o1	-46.4% (inactive)
O=C(C[C@H]1C[C@H]2c3cc(NS(=O)(=O)c4ccc(F)cc4)ccc3O[C@H]2[C@H](CO)O1)NCc1ccc(Oc2ccccc2)cc1	21.5% (inactive)
O=C(CN1C(=O)c2ccccc2S1(=O)=O)c1ccc(F)cc1	20.9% (inactive)
Cc1cc(C(=O)CN2C(=O)c3ccccc3S2(=O)=O)c(C)n1C(C)C	17.7% (inactive)
N#CC1=C(N)Oc2cc(N)ccc2C1c1cccc(Br)c1 (stereo not drawn)	-27% (inactive)
CC1(CCc2ccccc2)NC(=O)N(CC(=O)N2CC(=O)Nc3ccccc32)C1=O (stereo not drawn)	-19.7% (inactive)
Cc1c(N=Cc2cc(Br)cc(Br)c2O)cccc1C(=O)O	-9.11% (inactive)
CN1c2ccc(-c3ccc(C#N)cc3)cc2[C@H]2[C@H](CCN2S(=O)(=O)c2cccc(F)c2)[C@@H]1CO	33.3% (inactive)
CC(C)(C)C(=O)Cn1ncc(Cl)c(Cl)c1=O	-23.7% (inactive)
CC1=NN(c2ccc(C)cc2)C(=O)/C1=C\C=C\c1ccccc1	-23.5% (inactive)
